Bridge positions count the residues as written; N and C are the ends. Square brackets hold non-standard residues; d marks the D form. Peptide text beside a SMILES is read from it. * marks the point of attachment. Acetyl(2-naphthyl) = O=C(Cc1ccc2ccccc2c1)*
What was measured:
[1] = system: MCF-7 cells; assay type: cell-based
Description: (§1) MTT assay was performed as described previously.^[6^] Briefly, the cells (5 × 10^3 cells/well) were seeded in 96-well culture plates (Coring) and incubated overnight. Then cells were exposed to various concentrations of cyclic-1a and incubated at 37 °C for 72 h. After that, MTT stock solution (0.5 mg/mL) was added into each well and cultured for additional 4 h. The MTT treated cells were […] with 150 μL of DMSO. The absorbance in each individual well was measured by using a microplate spectrophotometer at […] (SpectraMax M2e, Molecular Devices Inc. USA).

[2] = system: MCF-7 cells; assay type: cell-based; remark: listed apart in the source
[3] = Body weight and histological examination of organs in tumor-bearing mice; assay type: in vivo, BALB/c nude mice; details: cyclic-1a 20 and 60 mg/kg
Description: Female BALB/c nude mice (6 weeks old) were purchased from the Experimental Animal Center of Yangzhou University. The experiments involving animals were approved by the Animal Ethics Committee of China Pharmaceutical University (Ethic approval number: 2020-07-003). In vivo anticancer activity assay was performed as described previously.^[9^] Briefly, MCF-7/DOX cells (200 μL, 1 × 10^7 cells) were implanted into the right mammary fat pad of nude mice. Once tumors grew to 80-100 mm^3, mice were randomly assigned into four groups and treated intraperitoneally with vehicle, cyclic-1a (20 mg/kg), cyclic-1a (60 mg/kg) or DOX (5 mg/kg) every 3 days for a total of six times. Tumor volume and body weight were measured every 3 days. Tumor volume was calculated using the formula (c × c × d)/2 (c, the smallest diameter; d, the largest diameter).
Immunohistochemical stains against Ki67 and cleaved caspase 3 were performed using immunohistochemistry kit (KeyGen, Nanjing, China) according to the manufacturer’s instructions. Mouse organs (heart, liver, spleen, lung and kidney) tissues were fixed in 4% paraformaldehyde at 4 °C for 48 h, and then embedded in paraffin wax, sectioned (5 µm) and processed for H&E staining. Inverted fluorescence microscope was used to photograph all sections.

[4] = system: MCF-7/DOX cells; test: MTT assay, MCF-7/DOX cells; assay type: cell-based; details: Homo sapiens, MCF7-DOX, mean ± SD, n=3
Description: as §1

[5] = biological target: T1, CB enzyme (cathepsin B) (Homo sapiens, UniProt P07858); test: Cathepsin B conversion of linear-1a into linear-1b (LC-MS); assay type: biochemical; details: after GSH 8 mM for 12 h, then CB 1 U/mL, 37 °C, PBS pH 7.4; at 20 h; LC-MS peak area; mean, n=3
T1 construct: purchased Sigma-Aldrich (St. Louis, MO, USA)
Description: Molecular self-assembly was performed as described previously.^[1] Briefly, the cyclic-1a was diluted into the phosphate-buffered saline (PBS; pH 7.4) to a final concentration of 1600 µM and incubated at 37 °C. The GSH (8 mM) was then added to the above solution for 12 h at 37 °C to trigger the first step of self-assembly. Afterward, cathepsin B was added to the solution for 12 h at 37 °C to trigger the second step of self-assembly (1 U/mL).
2 mL of the sample prepared by part 3 were adding GSH (8 mM) for 12 h, and then added 1 U/mL of cathepsin B, 100 µL of each sample was collected at each time point and 100 µL methanol was added to terminate the reaction. The method of detection was similar to part 3.1.

SMILES: N=C(N)NCCC[C@H](NC(=O)CNC(=O)CNC(=O)[C@@H]1CSSC[C@H](NC(=O)Cc2ccc3ccccc3c2)C(=O)N[C@H](Cc2ccccc2)C(=O)N[C@H](Cc2ccccc2)C(=O)N[C@H](Cc2ccc(O)cc2)C(=O)N[C@H](CCCCN)C(=O)N1)C(=O)N[C@@H](CCCNC(=N)N)C(=O)NCC(=O)N[C@@H](CCCCN)C(=O)NCC(=O)NCC(=O)N[C@@H](Cc1c[nH]cn1)C(=O)N[C@@H](Cc1c[nH]cn1)C(=O)N[C@@H](Cc1c[nH]cn1)C(=O)N[C@@H](CCCNC(=N)N)C(=O)N[C@@H](CCCNC(=N)N)C(=O)NCC(=O)N[C@@H](CC(=O)O)C(=O)N[C@@H](CO)C(=O)O [cyclic-1a] ({Acetyl(2-naphthyl)}-C[dF][dF][dY][dK]CGGRRGKGGHHHRRGDS-OH; disulfide 1-6)
- cytotoxicity to MCF-7 cells (MTT) [1]: no obvious cytotoxicity
- cellular uptake ability, MCF-7 cells [2]: strong cellular uptake ability

SMILES: COc1cccc2c1C(=O)c1c(O)c3c(c(O)c1C2=O)C[C@@](O)(C(=O)CO)C[C@@H]3O[C@H]1C[C@H](N)[C@H](O)[C@H](C)O1 [doxorubicin, Doxorubicin]
- body weight of mice ([3]; DOX 5 mg/kg, intraperitoneally every 3 days, six times, n=6): gradually increased throughout the experiments except for the DOX-treated group
- pathological lesions in organs (H&E) ([3]; heart, liver, spleen, lung and kidney, DOX 5 mg/kg intraperitoneally): lesions of the heart and kidney were detected
- IC50 [4]: 83.3 ± 6.13 µM

SMILES: N=C(N)NCCC[C@H](NC(=O)CNC(=O)CNC(=O)[C@H](CS)NC(=O)[C@@H](CCCCN)NC(=O)[C@@H](Cc1ccc(O)cc1)NC(=O)[C@@H](Cc1ccccc1)NC(=O)[C@@H](Cc1ccccc1)NC(=O)[C@H](CS)NC(=O)Cc1ccc2ccccc2c1)C(=O)N[C@@H](CCCNC(=N)N)C(=O)NCC(=O)N[C@@H](CCCCN)C(=O)NCC(=O)NCC(=O)N[C@@H](Cc1c[nH]cn1)C(=O)N[C@@H](Cc1c[nH]cn1)C(=O)N[C@@H](Cc1c[nH]cn1)C(=O)N[C@@H](CCCNC(=N)N)C(=O)N[C@@H](CCCNC(=N)N)C(=O)NCC(=O)N[C@@H](CC(=O)O)C(=O)N[C@@H](CO)C(=O)O [linear-1a] ({Acetyl(2-naphthyl)}-C[dF][dF][dY][dK]CGGRRGKGGHHHRRGDS-OH)
- linear-1a converted into linear-1b [5]: more than 90%

From publication PMC8795745, “A GSH/CB Dual-Controlled Self-Assembled Nanomedicine for High-Efficacy Doxorubicin-Resistant Breast Cancer Therapy” (Frontiers in Pharmacology, 2022)
